Measurements reported in US7858388B2, “MS based peptide and protein sequencing via reactions of lysine residues with peroxycarbonate compounds” (Vanderbilt University, priority 2004, dated 2010).

Experiment: Half-life of peroxycarbonate 1 in basic phosphate buffer (formation of p-nitrophenoxide)
Format: physicochemical
Details: pH 8.2 phosphate buffer (50% MeOH)
Method: Reaction of p-nitrophenylchloroformate with tert-butyl hydroperoxide gave the peroxycarbonate 1 which was isolated by silica chromatography as a white solid. Pyridine was added dropwise to a 0° C. methylene chloride solution of the hydroperoxide and chloroformate. The product was characterized by ^1H and ^13C NMR, HRMS, mp=55-56° C. In basic water or water acetonitrile mixtures, 1 gave an almost immediate yellow color indicative of the formation of p-nitrophenoxide. The half-life of 1 in pH 8.2 phosphate buffer (50% MeOH) is approximately 112 sec. In basic aqueous acetonitrile solutions, αN-acetyl lysine methyl ester was converted cleanly to 2 on reaction with 10 equivalents of 1. The peroxycarbamate 2 (Ac-LPC-OMe) is stable to chromatography and can be fully characterized by spectroscopy and HRMS (“LPC” is used herein for lycine peroxycarbamate).

For `CC(C)(C)OOC(=O)Oc1ccc([N+](=O)[O-])cc1` [compound 1], the half-life was ~1.87 min.
